The text below walks through data of EP4772509A1, “KINESIN KIF18A INHIBITOR, AND APPLICATION THEREOF” (Shanghai Apeiron Therapeutics Company Limited, priority 2023, dated 2025).

For assay [1], the target named is T1, Human KIF18A (amino acid sequence 1-417) (Homo sapiens, UniProt Q8NI77).
T1 construct: purchased Viva Biotech (Shanghai) Ltd
T1 sequence (Q8NI77 1-417): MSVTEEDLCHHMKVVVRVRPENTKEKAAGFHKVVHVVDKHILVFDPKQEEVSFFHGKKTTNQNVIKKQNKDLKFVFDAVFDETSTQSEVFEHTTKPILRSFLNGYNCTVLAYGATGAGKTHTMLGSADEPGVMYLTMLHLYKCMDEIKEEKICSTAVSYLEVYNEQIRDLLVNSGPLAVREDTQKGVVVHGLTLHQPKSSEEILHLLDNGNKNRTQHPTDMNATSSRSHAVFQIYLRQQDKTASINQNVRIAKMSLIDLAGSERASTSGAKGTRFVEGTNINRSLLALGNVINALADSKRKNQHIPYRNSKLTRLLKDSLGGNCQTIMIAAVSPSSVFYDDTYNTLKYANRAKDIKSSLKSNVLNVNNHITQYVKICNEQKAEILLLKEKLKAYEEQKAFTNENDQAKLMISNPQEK
The experiment in a line: Enzymatic activity test (ADP-Glo, microtubule-stimulated ATPase). The assay is classed as biochemical. Particulars: 60 µg/mL microtubules, 25 µM ATP, 2.5 nM KIF18A protein, 120 min at ambient temperature, chemiluminescence. As for the experimental part: Materials: Human KIF18A (amino acid sequence 1-417) was purchased from Viva Biotech (Shanghai) Ltd.; the ADP-Glo™ protein kinase kit was acquired from Promega, USA; tubulin was sourced from Cytoskeleton, USA; and the 384-well assay plate and Envision multifunctional microplate reader were obtained from PerkinElmer, USA.
Enzymatic Activity Test: The compound powder was dissolved in DMSO to prepare a stock solution of 10 mM. Then gradient dilution was performed for the compounds in the microplate to achieve a final concentration of 0-10 µM. Then, 2.5 µL each of tubulin, compound, ATP, and KIF18A protein were added to the microplate in sequence for reaction at ambient temperature for 120 min. The final concentrations in the enzyme reaction were 60 µg/mL for microtubules, 25 µM for ATP, and 2.5 nM for KIF18A protein. After the enzyme reaction, 10 µL of ADP-GLO reaction reagent was added to each well and incubated at room temperature for 30 min. After that, 20 µL of detection reagent was added to each well and incubated at room temperature for 30 min in the dark. Finally, chemiluminescence detection was performed using the PerkinElmer Envision.
A general note: ADP-Glo turns the ADP formed in a reaction into a luminescent signal.

For assay [2], the system named is OVCAR3 cells. The experiment in a line: Cell proliferation activity test (CyQUANT Direct). The assay is classed as cell-based. The note with it: 3 days, 0.2% DMSO, CyQUANT fluorescence. On the procedure: Materials and Cells: OVCAR3 cells were purchased from Nanjing Cobioer Biosciences Co., Ltd. RPMI-1640 medium, fetal bovine serum, and the CyQUANT Direct Cell Proliferation Assay kit were purchased from Thermo Fisher Scientific, USA; 96-well cell culture plates were sourced from Corning, USA.
Cell Culture: OVCAR3 cells were cultured with RPMI-1640 medium containing 10% fetal bovine serum and incubated in a 5% CO2 incubator at 37°C. Only cells in the logarithmic growth phase could be used for the test.
OVCAR3 cells were inoculated into a 96-well cell culture plate at 90 µL per well and incubated overnight in a 5% CO2 incubator at 37°C. The compound powder was dissolved in DMSO to prepare a stock solution of 10 mM. Then gradient dilution was performed for the compounds in the microplate to achieve a final concentration of 0-10 µM. 10 µL of cell culture medium containing compounds was added to each well to make the final DMSO content 0.2%. The cell plates were incubated in a 5% CO2 incubator at 37°C for 3 days. 100 µL of CyQUANT detection reagent was added to each well, reacted at 37°C for 60 min, and fluorescence detection was performed using the PerkinElmer Envision.

The subject of assay [3] is HT29 cells. The assay is described as follows: CyQuant cell proliferation activity test. In kind it is cell-based. The note with it: HT29 at 2000 cells per well, 3 days, 0.2% DMSO, XLFIT. As for the experimental part:
Materials and Cells: HT29 cells were purchased from Nanjing Cobioer Biosciences Co., Ltd.; RPMI-1640 medium, fetal bovine serum, Trypsin-EDTA (0.25%), 96-well plates, and CyQuant reagents were purchased from ThermoFisher (USA); DMSO was purchased from SIGMA (USA).
Cell Culture: HT29 cells were cultured with RPMI-1640 containing 10% fetal bovine serum under the condition of 37°C and 5% CO2. Only cells in the logarithmic growth phase could be used for the test.
Cell Proliferation Activity Test: CyQuant reagent was used to detect the proliferation inhibitory activity of compounds on HT29 cells. The cell density was adjusted, and 100 µL per well was inoculated into a 96-well plate (HT29 at 2000 cells per well), then incubated overnight at 37°C and 5% CO2. Add compounds of various target concentrations (initial concentration of 3000 nM, 3-fold dilution, 9 concentration gradients), and make the DMSO content 0.2%. The cell plate was incubated at 37°C in 5% CO2 for 3 days. CyQuant reagent was added and incubated for 1 h. The plates were read by Envision, and IC50 was calculated using XLFIT.

Where two headings read alike, the source gives them in different places.

Turning to `Cc1cc2nc(n1)N1CCC(F)(F)C(CCCc3ccn(c(=O)c3)-c3cc(NS(=O)(=O)CCO)ccc3C(=O)N2)C1` (stereo not drawn) [Example 52, N-(1^4,1^4-difluoro-2^6-methyl-6^2,4-dioxo-6^1,6^2-dihydro-3-aza-2(2,4)-pyrimidin-6(1,4)-pyridin-1(1,3)-piperidin-5(1,2)-phenylheterocyclononane-5^4-yl)-2-hydroxyethane-1-sulfonamide], the IC50 (commonly the concentration at which inhibition is half-maximal) was 555 nM in assay [1] (read-out: KIF18A IC50); over 3000 nM in assay [2] (Homo sapiens, OVCAR-3, 72 h); over 3000 nM in assay [3] (Homo sapiens, HT-29, 72 h).

For the molecule `Cc1cc2nc(n1)N1CCC(F)(F)C(/C=C\Cc3ccc(cc3)-c3cc(NS(=O)(=O)CCO)ccc3C(=O)N2)C1` (stereo not drawn) [Example 42, N-(1^4,1^4-difluoro-2^6-methyl-4-oxo-3-aza-2(2,4)-pyrimidin-1(1,3)-piperidin-5(1,2),6(1,4)-diphenylheterocyclonon-8-en-5^4-yl)-2-hydroxyethane-1-sulfonamide], the IC50 in assay [1] (KIF18A IC50 nM) was 167 nM; in assay [2] (Homo sapiens, OVCAR-3, 72 h), 136 nM; in assay [3] (Homo sapiens, HT-29, 72 h), 162 nM.

Turning to `Cc1cc2nc(n1)N1CCC(F)(F)C(C=CCC3=CC=C(S3)c3cc(NS(=O)(=O)CCO)ccc3C(=O)N2)C1` (stereo not drawn) [Example 57, N-(1^4,1^4-difluoro-2^6-methyl-4-oxo-3-aza-2(2,4)-pyrimidin-1(1,3)-piperidin-6(2,5)-thiophene-5(1,2)-benzoazacyclon-8-en-5^4-yl)-2-hydroxyethane-1-sulfonamide], the 50% inhibitory concentration (IC50) worked out at 52 nM in assay [1] (read-out: KIF18A IC50); 119 nM in assay [2] (Homo sapiens, OVCAR-3, 72 h); 22 nM in assay [3] (Homo sapiens, HT-29, 72 h).

In the case of `Cc1cc2nc(n1)N1CCC(F)(F)C(/C=C\CC3CCN(CC3)c3cc(NS(=O)(=O)CCO)c4c(c3C(=O)N2)CCC4(C)O)C1` (stereo not drawn) [Example 13, (cis)-N-(1^4,1^4-difluoro-5^1-hydroxy-2^6,5^1-dimethyl-4-oxo-5^2,5^3-dihydro-5^1H-3-aza-2(2,4)-pyrimidin-1(1,3),6(1,4)-dipiperidin-5(4,5)-indenocyclononane-8-en-5^7-yl)-2-hydroxyethane-1-sulfonamide], the IC50 in assay [1] (read-out: KIF18A IC50) stood at 294 nM; in assay [2] (Homo sapiens, OVCAR-3, 72 h), 181 nM; in assay [3] (Homo sapiens, HT-29, 72 h), 187 nM.

Turning to `Cc1cc2nc(n1)N1CCC(F)(F)[C@@H](CCCC3CCN(CC3)c3cc(NS(=O)(=O)CCO)c4c(c3C(=O)N2)CCC4=O)C1` [Example 10, N-((1^3S)-1^4,1^4-difluoro-2^6-methyl-5^1,4-dioxo-5^2,5^3-dihydro-5^1H-3-aza-2(2,4)-pyrimidin-1(1,3),6(1,4)-dipiperidin-5(4,5) -indenobicyclononane-5^7-yl)-2-hydroxyethane-1-sulfonamide], the IC50 turned out to be 43 nM in assay [1] (read-out: KIF18A IC50); 36 nM in assay [2] (Homo sapiens, OVCAR-3, 72 h); 39 nM in assay [3] (Homo sapiens, HT-29, 72 h).

On to `Cc1cc2nc(n1)N1CCC(F)(F)C(C=CCC3CCN(CC3)c3cc(NS(C)(=O)=O)c4c(c3C(=O)N2)CCC4=O)C1` (stereo not drawn) [Example 19, N-(1^4,1^4-difluoro-2^6-methyl-5^1,4-dioxo-5^2,5^3-dihydro-5^1H-3-aza-2(2,4)-pyrimidin-1(1,3),6(1,4)-dipiperidin-5(4,5)-indenoheterocyclonon-8-en-5^7-yl)-methanesulfonamide], for which the figures for the IC50 in assay [1] (read-out: KIF18A IC50), in assay [2] and in assay [3] (read-out: HT-29 IC50) were 73 nM, 52 nM and 48 nM, respectively.

Turning to `Cc1cc2nc(n1)N1CCC(F)(F)C(C=CCc3ccc(cc3)-c3cc(NS(=O)(=O)CCO)ccc3C(=O)N2)C1` (stereo not drawn) [Example 55, N-(1^4,1^4-difluoro-2^6-methyl-4-oxo-3-aza-2(2,4)-pyrimidin-1(1,3)-piperidin-5(1,2),6(1,4)-diphenylheterocyclonon-8-en-5^4-yl)-2-hydroxyethane-1-sulfonamide], the half-inhibitory concentration (IC50) in assay [1] (read-out: KIF18A IC50) stood at 88 nM; in assay [2] (Homo sapiens, OVCAR-3, 72 h), 30 nM; in assay [3] (Homo sapiens, HT-29, 72 h) it was 29 nM.

On to “N-(1^4,1^4-difluoro-2^6-methyl-5^1,4-dioxo-5^1,5^2,5^3,5^4-tetrahydro-3-aza-2(2,4)-pyrimidin-1(1,3),6(1,4)-dipiperidin-5(5,6)-in denoheterocyclonon-8-en-5^8-yl)-2-hydroxyethane-1-sulfonamide [Example 8]”, for which the values for the half-maximal inhibitory concentration (IC50) in assay [1] (read-out: KIF18A IC50), in assay [2] and in assay [3] (read-out: HT-29 IC50) were 48 nM, 37 nM and 43 nM, respectively.

`Cc1cc2nc(n1)N1CCC(F)(F)C(/C=C/CC3CCN(CC3)c3cc(NS(=O)(=O)CCO)c(C(=O)C4CC4)cc3-n3cc-2nn3)C1` (stereo not drawn) [Example 89, N-((3^4Z,7E)-4^5-(cyclopropanecarbonyl)-1^4,1^4-difluoro-2^6-methyl-3^1H-2(2,4)-pyrimidin-1(1,3),5(1,4)-dipiperidin-3(4,1) -triazole-4(1,2)-benzocyclooct-7-en-4^4-yl)-2-hydroxyethane-1-sulfonamide]: the IC50 in assay [1] (read-out: KIF18A IC50) stood at 1700 nM; in assay [2] (Homo sapiens, OVCAR-3, 72 h), 171 nM; in assay [3] (Homo sapiens, HT-29, 72 h) it was 173 nM.

Take `Cc1cc2nc(n1)N1CCC(F)(F)C(CCCC3=CC=C(S3)c3cc(NS(=O)(=O)CCO)ccc3C(=O)N2)C1` (stereo not drawn) [Example 58, N-(1^4,1^4-difluoro-2^6-methyl-4-oxo-3-aza-2(2,4)-pyrimidin-1(1,3)-piperidin-6(2,5)-thiophene-5(1,2)-benzoazacyclononane-5^4-yl)-2-hydroxyethane-1-sulfonamide]: the IC50 in assay [1] (read-out: KIF18A IC50) came to 67 nM; in assay [2] (Homo sapiens, OVCAR-3, 72 h), 116 nM; in assay [3] (Homo sapiens, HT-29, 72 h) it was 42 nM.

On to `Cc1cc2nc(n1)N1CCC(F)(F)C(CCCc3ccc(cc3)-c3cc(NS(=O)(=O)CCO)ccc3C(=O)N2)C1` (stereo not drawn) [Example 44, N-((1^3S,Z)-1^4,1^4-difluoro-2^6-methyl-3^1H-2(2,4)-pyrimidin-1(1,3),5(1,4)-dipiperidin-3(4,1)-triazole-4(1,2)-benzylcyclooctyl-4^4-yl)-2-hydroxyethane-1-sulfonamide], for which the IC50 was found to be 83 nM in assay [1] (read-out: KIF18A IC50); 27 nM in assay [2] (Homo sapiens, OVCAR-3, 72 h); 39 nM in assay [3] (Homo sapiens, HT-29, 72 h).

As for `Cc1cc2nc(n1)N1CCC(F)(F)C(C=CCC3CCN(CC3)c3cc(NS(=O)(=O)CCO)c4c(c3C(=O)N2)CCC4=O)C1` (single isomer, unassigned) [Example 2D, N-(1^4,1^4-difluoro-2^6-methyl-5^1,4-dioxo-5^2,5^3-dihydro-5^1H-3-aza-2(2,4)-pyrimidin-1(1,3),6(1,4)-dipiperidin-5(4,5)-indenoheterocyclonon-8-en-5^7-yl)-2-hydroxyethane-1-sulfonamide], the IC50 is 546 nM in assay [1] (read-out: KIF18A IC50), 679 nM in assay [2] and 679 nM in assay [3] (read-out: HT-29 IC50).

Turning to `Cc1cc2nc(n1)N1CCC(F)(F)C(/C=C/CC3CCN(CC3)c3cc(NS(=O)(=O)CCO)c4ccccc4c3C(=O)N2)C1` (single isomer, unassigned) [Example 1D, (trans)-N-(1^4,1^4-difluoro-2^6-methyl-4-oxo-3-aza-2(2,4)-pyrimidin-1(1,3),6(1,4)-dipiperidin-5(1,2)-naphthacyclonon-8-en-5 ^4-yl)-2-hydroxyethane-1-sulfonamide], the results for the IC50 in assay [1] (read-out: KIF18A IC50), in assay [2] and in assay [3] (read-out: HT-29 IC50) were 211 nM, 137 nM and 137 nM, respectively.
